Columns and labels:
[1] = system: human rheumatoid arthritis fibroblast-like synoviocytes; details: TNF-α-stimulated; cited from earlier work
macrophages = details: cited from earlier work
[2] = system: PI3K/Akt signaling pathway; assay: Immunoblotting of EGF-stimulated normal human bronchial epithelial cells; format: cell-based; details: 10 μM artesunate, pretreated 4 h; EGF 5, 15 and 30 min
Description: (§1) To determine the effects of artesunate on OVA-specific immune responses in lymphocytes, thoracic lymph node cells were prepared as described (24). Cells were exposed to […] OVA for 72 hours. Concanavalin A (Con A, 10 μg/ml) was used as a positive control. Supernatants from parallel triplicate cultures were analyzed for cytokine levels by ELISA. Normal human bronchial epithelial cells were cultured in optimized bronchial epithelial bulletkit medium with supplements (Lonza, Basel, Switzerland). Cells were pretreated with 10 μM artesunate or vehicle (0.01% DMSO) 4 hours before stimulation with […] epidermal growth factor (EGF). Total and nuclear proteins, and mRNA were extracted from cells at specified time intervals.
(§2) Lung and cell culture protein lysates ([…] per lane) were separated by 10% SDS-PAGE and immunoblots were developed as described (24). Immunoblots were probed with anti-Akt, anti-phospho-Akt (Ser473), anti-tuberin, anti-phosphotuberin (Ser1462), anti-p70S6K, anti-phospho-p70S6K (Ser389), anti-4E-BP1, anti phospho-4E-BP1 (Ser65), and anti-β-actin antibodies (Cell Signaling Technology, Beverly, Mass.). Proteins were separated by 10% SDSPAGE, probed with anti-Akt, anti-phospho-Akt (Ser473), anti-tuberin, antiphospho-tuberin (Ser1462), anti-p 70S6K, anti-phospho-p70S6K (Ser389), anti-4EBP1, and anti-phospho-4E-BP1 (Ser65), and developed by enhanced chemiluminescence reagent. β-actin was used as an internal control. The experiments were repeated for three times. Primers for inflammatory genes are shown in Table 1 and mRNA expression was analyzed as described (24). Nuclear proteins were analyzed for NF-κB DNA-binding activity using TransAM NF-κB transcription factor assay kit (Active Motif, Carlsbad, Calif.). Total mRNA was extracted using TriZol reagent and the PCR products were separated in a 2% agarose gel visualized under UV light. β-actin was used as an internal control. The experiments were repeated for three times

[3] = system: OVA-induced lung tissue eosinophilia and mucus hypersecretion in BALB/c mice; assay: Histologic analysis of lung tissue (H&E, PAS) in OVA-induced mouse asthma model; format: in vivo; details: 30 mg/kg, 24 h after last OVA challenge
Description: Female BALB/c mice, 6 to 8 weeks old (Interfauna, East Yorkshire, UK), were sensitized and challenged with OVA as described (24). Artesunate (3, 10, and 30 mg/kg; Sigma, St. Louis, Mo.) or vehicle (6% dimethyl sulfoxide [DMSO]) in 0.1 ml saline was given by intraperitoneal injections 2 hours before each OVA aerosol challenge. Saline aerosol was used as a negative control. Animal experiments were performed according to the Institutional guidelines for Animal Care and Use Committee of the National University of Singapore. Lungs were fixed in 10% neutral formalin, paraffinized, cut into 5-μm sections, and stained with hematoxylin and eosin (H&E) for examining cell infiltration and with periodic acid-Schiff stain (PAS) for measuring mucus production. Quantitative analysis was performed blinded as described (24). Quantitative analyses of inflammatory cell infiltration and mucus production in lung sections were performed as previously described (24). […] To determine the extent of mucus production, goblet cell hyperplasia in the airway epithelium was quantified blind using a 5-point grading system: 0, no goblet cells; 1, <25%; 2, 25-50%; 3, 50-75%; 4, >75%.

[4] = system: peripheral blood leukocytes; assay: Flow cytometric analysis of peripheral blood leukocytes; format: in vivo, mouse; details: artesunate-treated vs saline-challenged, OVA-challenged and vehicle control mice; data not shown
Description: BAL fluid was collected 24 hours after the last OVA or saline aerosol challenge, and total and differential cell counts were performed. […] We have conducted flow cytometric analysis of peripheral blood leukocytes obtained from saline challenged, OVA-challenged, vehicle control, and artesunate-treated mice.

[5] = system: OVA-induced inflammatory gene expression in lung tissues; assay: Lung mRNA expression of inflammatory genes (RT-PCR); format: in vivo, mouse; details: 30 mg/kg pretreatment; OVA-challenged mice
Description: (§3) Female BALB/c mice, 6 to 8 weeks old (Interfauna, East Yorkshire, UK), were sensitized and challenged with OVA as described (24). Artesunate (3, 10, and 30 mg/kg; Sigma, St. Louis, Mo.) or vehicle (6% dimethyl sulfoxide [DMSO]) in 0.1 ml saline was given by intraperitoneal injections 2 hours before each OVA aerosol challenge. Saline aerosol was used as a negative control. Animal experiments were performed according to the Institutional guidelines for Animal Care and Use Committee of the National University of Singapore.
as §2

p65 NF-κB [6] = assay: Nuclear p65 NF-κB DNA-binding activity in lung tissues (TransAM ELISA kit); format: in vivo, mouse; details: 30 mg/kg; to basal level
Description: as §3
(§4) Lung and cell culture protein lysates ([…] per lane) were separated by 10% SDS-PAGE and immunoblots were developed as described (24). Immunoblots were probed with anti-Akt, anti-phospho-Akt (Ser473), anti-tuberin, anti-phosphotuberin (Ser1462), anti-p70S6K, anti-phospho-p70S6K (Ser389), anti-4E-BP1, anti phospho-4E-BP1 (Ser65), and anti-β-actin antibodies (Cell Signaling Technology, Beverly, Mass.). […] Primers for inflammatory genes are shown in Table 1 and mRNA expression was analyzed as described (24). Nuclear proteins were analyzed for NF-κB DNA-binding activity using TransAM NF-κB transcription factor assay kit (Active Motif, Carlsbad, Calif.). […]

p65 NF-κB [7] = assay: p65 NF-κB DNA-binding activity in EGF-stimulated normal human bronchial epithelial cells; format: cell-based; details: 10 μM artesunate; EGF 30 min
Description: as §1, §4

[8] = system: thoracic lymph node cells; assay: OVA-specific responses in thoracic lymph node cultures from treated mice; format: cell-based, mouse
Description: as §1

[9] = system: phosphoinositide 3-kinase (PI3K)/Akt signaling pathway; details: cited from earlier work
[10] = system: OVA-induced BAL fluid cytokine and chemokine levels in BALB/c mice; assay: BAL fluid cytokine and chemokine levels by ELISA in OVA-induced mouse asthma model; format: in vivo
Description: as §3, with “Singapore. Mice were anesthetized 24 hours after the last aerosol challenge and bronchoalveolar lavage (BAL) was performed as described (24). BAL fluid total and differential cell counts, and cytokine and chemokine levels were determined as described (24). Blood was collected by cardiac puncture, and serum levels of total IgE and OVA-specific IgE, IgG1, and IgG2a levels were determined as described (24).” for “Singapore.”

[11] = system: OVA-induced inflammatory cell recruitment in BALB/c mice; assay: BAL fluid total and differential cell counts in OVA-induced mouse asthma model; format: in vivo
Description: as §3, with “Singapore. Mice were anesthetized 24 hours after the last aerosol challenge and bronchoalveolar lavage (BAL) was performed as described (24). BAL fluid total and differential cell counts, and cytokine and chemokine levels were determined as described (24). Blood was collected by cardiac puncture, and serum levels of total IgE and OVA-specific IgE, IgG1, and IgG2a levels were determined as described (24).” for “Singapore.”

[12] = system: PI3K/Akt signaling pathway; assay: TNF-α-induced signalling in normal human bronchial epithelial cells; format: cell-based
[13] = system: PI3K/Akt signaling pathway; assay: Immunoblotting of PI3K/Akt phosphorylation cascade in lung tissues; format: in vivo, mouse; details: 30 mg/kg; OVA-challenged mice; to the basal levels
Description: as §3, §2

[14] = system: OVA-induced AHR in BALB/c mice; assay: Airway hyperresponsiveness (AHR) to methacholine in mechanically ventilated mice; format: in vivo, mouse; details: 30 mg/kg; OVA-challenged mice; methacholine 0.5-8.0 mg/ml
Description: Female BALB/c mice, 6 to 8 weeks old (Interfauna, East Yorkshire, UK), were sensitized and challenged with OVA as described (24). Artesunate (3, 10, and 30 mg/kg; Sigma, St. Louis, Mo.) or vehicle (6% dimethyl sulfoxide [DMSO]) in 0.1 ml saline was given by intraperitoneal injections 2 hours before each OVA aerosol challenge. Saline aerosol was used as a negative control. […] Mice were anesthetized and tracheotomy was performed as described (24). The trachea was intubated with a cannula that was connected to the pneumotach, ventilator and nebulizer. Airway resistance (RI) and dynamic compliance (Cdyn) in response to increasing concentrations of nebulized mechacholine (0.5-8.0 mg/ml) were recorded using a whole-body plethysmograph chamber (Buxco, Sharon, Conn.) as described (24). Results are expressed as a percentage of the respective basal values in response to phosphate-buffered saline (PBS).

[15] = system: normal human bronchial epithelial cells; assay: Cytokine mRNA expression in EGF-stimulated normal human bronchial epithelial cells; format: cell-based; details: 10 μM artesunate; EGF 12 hours
Description: as §1, §2

[16] = system: OVA-induced serum Ig production in BALB/c mice; assay: Serum Ig levels by ELISA in OVA-induced mouse asthma model; format: in vivo
Description: as §3, with “Singapore. Mice were anesthetized 24 hours after the last aerosol challenge and bronchoalveolar lavage (BAL) was performed as described (24). BAL fluid total and differential cell counts, and cytokine and chemokine levels were determined as described (24). Blood was collected by cardiac puncture, and serum levels of total IgE and OVA-specific IgE, IgG1, and IgG2a levels were determined as described (24).” for “Singapore.”

[17] = mice pretreated with 30 mg/kg, cells cultured 72 h with OVA, vs DMSO
[18] = 3, 10, 30 mg/kg, dose-dependent, to a lesser extent than IL-13 and eotaxin, vs DMSO control
[19] = 3, 10, 30 mg/kg, dose-dependent, vs DMSO control
[20] = 3, 10 and 30 mg/kg i.p. 2 h before each OVA challenge, 24 h after last challenge, dose-dependent, vs DMSO vehicle control

SMILES: C[C@H]1[C@H](OC(=O)CCC(=O)O)O[C@@H]2O[C@@]3(C)CC[C@H]4[C@H](C)CC[C@@H]1[C@@]24OO3 [Artesunate, artesunate]
- production of IL-1β [1]: block
- production of IL-6 [1]: block
- production of IL-8 [1]: block
- lipopolysaccharide-induced production of IL-6 (macrophages): inhibits
- lipopolysaccharide-induced production of TNF-α (macrophages): inhibits
- lipopolysaccharide-induced production of nitric oxide (NO) (macrophages): inhibits
- expression of TLR9 (macrophages; lipopolysaccharide-induced): inhibits
- expression of toll-like receptor 4 (TLR4) (macrophages; lipopolysaccharide-induced): inhibits
- EGF-induced phosphorylation of 4E-BP1 [2]: markedly inhibited
- EGF-induced phosphorylation of Akt [2]: markedly inhibited
- EGF-induced phosphorylation of p70S6K [2]: markedly inhibited
- EGF-induced phosphorylation of tuberin [2]: markedly inhibited
- OVA-induced mucus hypersecretion (PAS) [3]: significantly halted
- eosinophil-rich leukocyte infiltration in lung tissue (H&E) ([3]; vs DMSO control): markedly diminished
- percentages of CD3+, CD4+, CD8+ T cells, B cells, NK cells, neutrophils and monocytes in peripheral blood [4]: Similar
- lung AMCase mRNA level [5]: strong suppression
- lung E-selectin mRNA level [5]: strong suppression
- lung ICAM-1 mRNA level [5]: strong suppression
- lung IL-17 mRNA level [5]: strong suppression
- lung IL-33 mRNA level [5]: strong suppression
- lung Muc5ac mRNA level [5]: strong suppression
- lung TSLP mRNA level [5]: strong suppression
- lung VCAM-1 mRNA level [5]: strong suppression
- lung YKL-40 mRNA level [5]: strong suppression
- lung Ym-2 mRNA level [5]: strong suppression
- lung iNOS mRNA level [5]: strong suppression
- OVA-induced NF-κB transactivation (p65 DNA-binding) in lung tissues (p65 NF-κB [6]): significantly suppressed
- EGF-induced NF-κB transactivation (DNA binding activity) (p65 NF-κB [7]): markedly inhibited
- in vitro OVA-specific IL-4 production [8, 17]: significantly (P<0.05) lowered
- in vitro OVA-specific IL-5 production [8, 17]: significantly (P<0.05) lowered
- in vitro OVA-specific IL-13 production [8, 17]: significantly (P<0.05) lowered
- in vitro OVA-specific IFN-γ production ([8]; mice treated with 30 mg/kg, cells cultured 72 h with OVA): elevated
- Con A-induced production of IL-4, IL-5, IL-13 and IFN-γ ([8]; parallel cultures, Con A 10 μg/ml, data not shown): not affected
- activity against the PI3K/Akt signaling pathway [9]: strong inhibitory activity
- IL-4 level in BAL fluid [10, 18]: reduced
- IL-5 level in BAL fluid [10, 18]: reduced
- IL-13 level in BAL fluid [10, 19]: drastically reduced
- eotaxin level in BAL fluid [10, 19]: drastically reduced
- IFN-γ level in BAL fluid ([10]; 10 and 30 mg/kg): up-regulated
- eosinophil count in BAL fluid [11, 20]: drastically decreased
- total cell count in BAL fluid [11, 20]: drastically decreased
- lymphocyte count in BAL fluid ([11]; OVA-challenged mice): significant drop
- TNF-α-induced NF-κB DNA binding activity [12]: inhibited
- TNF-α-induced phosphorylation of Akt [12]: inhibited
- TNF-α-induced phosphorylation of p70 S6 kinase [12]: inhibited
- TNF-α-induced phosphorylation of phosphoinositide 3-kinase (PI3K) [12]: inhibited
- phosphorylation of 4E-BP1 in lung tissues [13]: markedly reduced
- phosphorylation of Akt in lung tissues [13]: markedly reduced
- phosphorylation of p70S6K in lung tissues [13]: markedly reduced
- phosphorylation of tuberin in lung tissues [13]: markedly reduced
- dynamic compliance (Cdyn) in response to methacholine aerosol [14]: restored
- lung/airway resistance (RI) in response to methacholine aerosol [14]: dramatically reduced
- EGF-induced up-regulation of IL-6 mRNA expression [15]: noticeably blocked
- EGF-induced up-regulation of IL-8 mRNA expression [15]: noticeably blocked
- EGF-induced up-regulation of MCP-1 mRNA expression [15]: noticeably blocked
- EGF-induced up-regulation of RANTES mRNA expression [15]: noticeably blocked
- serum total IgE level ([16]; 24 h after last OVA aerosol challenge): no effect
- serum OVA-specific IgG2a level ([16]; OVA-challenged mice): no effects
- serum OVA-specific IgE level ([16]; even at the lowest dose (3 mg/kg)): strongly suppressed
- serum OVA-specific IgG1 level ([16]; suppressed to a lesser extent than OVA-specific IgE): significant effects at higher dose
